The values that follow come from patent US3948967A, “Aryl urea carbonates” (Velsicol Chemical Corporation, priority 1974, dated 1976).

Format in all cases: in vivo
In assay [1] the test system is California barnyardgrass. The assay can be described thus: pre-emergence herbicidal activity, greenhouse pots. The conditions noted are these: 8 lb. per acre, 15 to 21 days, scale 0 = no injury to 10 = death. Here is the method: (§1) In these experiments small plastic greenhouse pots filled with dry soil were seeded with California barnyardgrass, crabgrass, dock, downybrome, foxtail, Johnson grass, mustard weed, pigweed and velvetleaf. Twenty-four hours or less after seeding the pots were sprayed with water until the soil was wet and the test compounds formulated as aqueous emulsions of acetone solutions containing emulsifiers were sprayed at the rate of 8 lb. per acre on the surface of the soil.
(§2) After spraying, the soil containers were placed in the greenhouse and provided with supplementary heat as required and daily or more frequent watering. The plants were maintained under these conditions for a period of from 15 to 21 days, at which time the condition of the plants and the degree of injury to the plants was rated on a scale of from 0 to 10, as follows: 0 = no injury, 1,2 = slight injury, 3,4 = moderate injury, 5,6 = moderately severe injury, 7,8,9 = severe injury and 10 = death.

Assay [2] relates to Crabgrass. The assay can be described thus: pre-emergence herbicidal activity, greenhouse pots. Conditions: 8 lb. per acre, 15 to 21 days, scale 0 = no injury to 10 = death. Here is the method:
as §1, §2

The test system of assay [3] is Dock. The assay can be described thus: pre-emergence herbicidal activity, greenhouse pots. Conditions: 8 lb. per acre, 15 to 21 days, scale 0 = no injury to 10 = death. The method, then:
as §1, §2

Assay [4] relates to Downybrome. The assay can be described thus: pre-emergence herbicidal activity, greenhouse pots. The conditions noted are these: 8 lb. per acre, 15 to 21 days, scale 0 = no injury to 10 = death. The method, then:
as §1, §2

The test system of assay [5] is Foxtail. The assay can be described thus: pre-emergence herbicidal activity, greenhouse pots. Conditions: 8 lb. per acre, 15 to 21 days, scale 0 = no injury to 10 = death. The method, then: as §1, §2
The test system of assay [6] is Johnson grass. In words: pre-emergence herbicidal activity, greenhouse pots. Conditions: 8 lb. per acre, 15 to 21 days, scale 0 = no injury to 10 = death. Here is the method: as §1, §2
The test system of assay [7] is Mustard. In words: pre-emergence herbicidal activity, greenhouse pots. The conditions noted are these: 8 lb. per acre, 15 to 21 days, scale 0 = no injury to 10 = death. The method, then: as §1, §2
For assay [8], the system named is Pigweed. In words: pre-emergence herbicidal activity, greenhouse pots. Conditions: 8 lb. per acre, 15 to 21 days, scale 0 = no injury to 10 = death. The method, then: as §1, §2
Assay [9] has as its system Velvetleaf. The assay can be described thus: pre-emergence herbicidal activity, greenhouse pots. The conditions noted are these: 8 lb. per acre, 15 to 21 days, scale 0 = no injury to 10 = death. The method, then: as §1, §2
Assay [10] deals with California barnyardgrass. The assay can be described thus: post-emergence herbicidal activity, foliage spray. Conditions: 8 lb. per acre on foliage, 10 to 15 days, scale 0 = no injury to 10 = death.
Text: as §2
(§3) In these experiments the compounds to be tested were formulated as aqueous emulsions and sprayed at the rate of 8 lb. per acre on the foliage of California barnyardgrass, crabgrass, dock, downybrome, foxtail, Johnson grass, mustard weed, pigweed and velvetleaf that had attained a prescribed size. After spraying the plants were placed in a greenhouse and watered daily or more frequently. Water was not applied to the foliage of the treated plants. The severity of the injury was determined 10 to 15 days after treatment and was rated on the scale of from 0 to 10 heretofore described.

Assay [11] relates to Crabgrass. In words: post-emergence herbicidal activity, foliage spray. The conditions noted are these: 8 lb. per acre on foliage, 10 to 15 days, scale 0 = no injury to 10 = death.
Text: as §2, §3

Assay [12] deals with Dock. In words: post-emergence herbicidal activity, foliage spray. The conditions noted are these: 8 lb. per acre on foliage, 10 to 15 days, scale 0 = no injury to 10 = death.
Text: as §2, §3

The subject of assay [13] is Downybrome. In words: post-emergence herbicidal activity, foliage spray. The conditions noted are these: 8 lb. per acre on foliage, 10 to 15 days, scale 0 = no injury to 10 = death.
Text: as §2, §3

Assay [14] has as its system Foxtail. The assay can be described thus: post-emergence herbicidal activity, foliage spray. Conditions: 8 lb. per acre on foliage, 10 to 15 days, scale 0 = no injury to 10 = death.
Text: as §2, §3

Assay [15] relates to Johnson grass. The assay can be described thus: post-emergence herbicidal activity, foliage spray. The conditions noted are these: 8 lb. per acre on foliage, 10 to 15 days, scale 0 = no injury to 10 = death.
Text: as §2, §3

The test system of assay [16] is Mustard. In words: post-emergence herbicidal activity, foliage spray. The conditions noted are these: 8 lb. per acre on foliage, 10 to 15 days, scale 0 = no injury to 10 = death.
Text: as §2, §3

Assay [17] relates to Pigweed. The assay can be described thus: post-emergence herbicidal activity, foliage spray. Conditions: 8 lb. per acre on foliage, 10 to 15 days, scale 0 = no injury to 10 = death.
Text: as §2, §3

Assay [18] relates to Velvetleaf. The assay can be described thus: post-emergence herbicidal activity, foliage spray. The conditions noted are these: 8 lb. per acre on foliage, 10 to 15 days, scale 0 = no injury to 10 = death.
Text: as §2, §3

In assay [19] the test system is leaf rust on wheat, Puccinia rubigo-vera. The assay can be described thus: control of leaf rust on wheat (soil watering). Conditions: about 25 cc. soil watering, rated 7 to 10 days after inoculation vs untreated. The method, then:
The fungicidal utility of the compounds of this invention was illustrated by experiments carried out for the control of leaf rust on wheat, Puccinia rubigo-vera. In these experiments wheat plants were grown in soil until they were about 2-21/2 inches tall. The soil in which the plants were growing was then watered with about 25 cc. of a solution of the chemical in water. The plants were then placed in the greenhouse for about five days and inoculated with leaf rust spores by dusting the spores from diseased plants. After 7 to 10 days the growth of the fungus on the plants was measured and rated in comparison with plants inoculated but otherwise untreated.

`CNC(=O)N(OC(=O)OC)c1ccc(Cl)c(Cl)c1` [Example 1, 1-(3,4-Dichlorophenyl)-1-methoxycarbonyloxy-3-methylurea]: the “Injury Rating, Pre-Emergence” value in the assay with California barnyardgrass [1] is listed as 9.5; in the assay on Crabgrass [2], 10; with Dock [3], 9.5; with Downybrome [4], 9; in the assay with Foxtail [5], 10; in the assay on Johnson grass [6] it was 9. Besides, the “Injury Rating, Pre-Emergence” value in the assay on Mustard [7], in the assay on Pigweed [8] and with Velvetleaf [9] was 10 throughout. The “Injury Rating, Post-Emergence” value in the assay on California barnyardgrass [10] amounted to 10; in the assay with Crabgrass [11], 10; in the assay with Dock [12] it was 8; with Downybrome [13] it was 10; in the assay on Foxtail [14], 10; in the assay on Johnson grass [15], 8. In addition, the “Injury Rating, Post-Emergence” value in the assay with Mustard [16], in the assay on Pigweed [17] and in the assay on Velvetleaf [18] was 10 in each case. Further, the “% Control” value in [19] (200 ppm actual compound) worked out at 100%.

Take `CCOC(=O)ON(C(=O)NC)c1ccc(Cl)c(Cl)c1` [Example 2, 1-(3,4-Dichlorophenyl)-1-ethoxycarbonyloxy-3-methylurea]: the “Injury Rating, Pre-Emergence” value is 10 with California barnyardgrass [1]; 10 with Crabgrass [2]; 9 with Dock [3]; 9 in the assay with Downybrome [4]; 10 in the assay with Foxtail [5]; 8 with Johnson grass [6]. Further, the “Injury Rating, Pre-Emergence” value in the assay with Mustard [7], with Pigweed [8] and in the assay on Velvetleaf [9] was 10 throughout. The “Injury Rating, Post-Emergence” value came out at 10 with California barnyardgrass [10]; 10 in the assay on Crabgrass [11]; 9 with Dock [12]; 10 in the assay with Downybrome [13]; 10 in the assay on Foxtail [14]; 8 in the assay on Johnson grass [15]. The “Injury Rating, Post-Emergence” value in the assay on Mustard [16], in the assay on Pigweed [17] and in the assay with Velvetleaf [18] was 10 in each case. In addition, the “% Control” value in [19] (200 ppm actual compound) amounted to 100%.

On to `CCOC(=O)ON(C(=O)NC)c1cc(Cl)ccc1Cl` [Example 3, 1-(2,5-Dichlorophenyl)-1-ethoxycarbonyloxy-3-methylurea], for which, in assay [19] (1000 ppm actual compound), the “% Control” value is 95%.
